Assay results: ChEMBL document CHEMBL2057075, “Guanacastane-type diterpenoids with cytotoxic activity from Coprinus plicatilis” (Bioorg Med Chem Lett, 2012)
Activity calls are given as the source filed them. The rule behind the calls is not given here.

What was measured:
U2OS = assay: Cytotoxicity against human U2OS cells after 72 hrs by MTT assay; type: functional, cell-based
MDA-MB-231 = assay: cells; conditions: Homo sapiens, MDA-MB-231, 72 h
Description: Cytotoxicity against human MDA-MB-231 cells after 72 hrs by MTT assay

HepG2 [1] = assay: cells; conditions: Homo sapiens, HepG2, 72 h
Description: Cytotoxicity against human HepG2 cells after 72 hrs by MTT assay

HeLa = assay: cells; conditions: Homo sapiens, 72 h
Description: Cytotoxicity against human HeLa cells after 72 hrs by MTT assay

BGC-823 = assay: Cytotoxicity against human BGC823 cells after 72 hrs by MTT assay; type: functional, cell-based; conditions: BGC-823, 72 h
HCT-116 = assay: cells; conditions: Homo sapiens, HCT-116, 72 h
HepG2 [2] = assay: Growth inhibition of human HepG2 cells at 20 uM after 72 hrs by MTT assay; type: functional, cell-based

## CC(C)[C@H]1[C@@H](O)C(=O)[C@@]2(O)[C@H]3OCC4=C3[C@@](C)(CC[C@@H]4O)CC[C@]12C (relative stereo)
U2OS
  IC50: 39.7 µM
MDA-MB-231
  IC50: 34.8 µM
HepG2 [1]
  IC50: 16.9 µM
HeLa
  IC50: > 50 µM
BGC-823
  IC50: 35.6 µM
HCT-116
  IC50: 19.8 µM
HepG2 [2]
  growth inhibition (GI): Active

## CC(C)[C@H]1C(=O)CC2=C(O)C3=C(CO)[C@@H](O)CC[C@@]3(C)CC[C@@]21C (relative stereo)
U2OS
  IC50: > 50 µM
MDA-MB-231
  IC50: > 50 µM
HepG2 [1]
  IC50: 25.9 µM
HeLa
  IC50: > 50 µM
BGC-823
  IC50: > 50 µM
HCT-116
  IC50: 38.9 µM
HepG2 [2]
  growth inhibition (GI): Active

## CC(=O)O[C@H]1C(=O)[C@@H]2[C@H]3OCC4=C3[C@@](C)(CC[C@@H]4O)CC[C@]2(C)[C@H]1C(C)C
HepG2 [2]
  growth inhibition (GI): inactive

## COc1cccc2c1C(=O)c1c(O)c3c(c(O)c1C2=O)C[C@@](O)(C(=O)CO)C[C@@H]3O[C@H]1C[C@H](N)[C@H](O)[C@H](C)O1 [DOXORUBICIN]
U2OS
  IC50: 3.4 µM
HepG2 [1]
  IC50: 0.7 µM
HeLa
  IC50: 0.6 µM
BGC-823
  IC50: 0.9 µM
HCT-116
  IC50: 0.3 µM

## CC(C)[C@H]1[C@@H](O)[C@@H](O)C2=C3OC(=O)C4=C3[C@@](C)(CC[C@@H]4O)CC[C@@]21C (relative stereo)
U2OS
  IC50: 19.3 µM
MDA-MB-231
  IC50: 6 µM
HepG2 [1]
  IC50: 2.3 µM
HeLa
  IC50: 5 µM
BGC-823
  IC50: 2.4 µM
HCT-116
  IC50: 1.2 µM
HepG2 [2]
  growth inhibition (GI): Active

## CC(C)[C@H]1[C@@H](O)[C@H](O)C2=CC3=C(CO)CCC[C@@]3(C)CC[C@@]21C (relative stereo)
HepG2 [2]
  growth inhibition (GI): inactive
